Test results from patent US20010051630A1, “Use of hydroxylamine derivatives, and method and preparations for increasing the tolerance of field crops against weather stresses” (priority 1997, published 2001).
Marks after values point to notes of the source that are not given here.

Legend:
soybean cv. Bólyi 44 = experiment: Field soybean cultivation, yield; assay type: in vivo
Experimental: The experiment was performed using soybean cv. Bólyi 44. Before sowing, the seeds were treated with Rhyzobium Japonicum nitrogen-binding bacterium, which forms a root nodule providing 50-70% of the nitrogen demand of the plant.
The examined compounds were applied by pearling the seeds; 1 ml of pearling agent containing 1 mg of active agent in a 5% aqueous PVA solution was used for 100 seeds.
The plants were sown after soil preparation in the autumn, using a crop rotation system, 3-5 cm deep in the ground, with a 45-50 cm row distance, a 5 cm plant distance and 450,000-500,000 plant/ha density. The date of sowing was Apr. 15, 1997. During the development of the plant, the usual cultivation procedures were followed and the usual pesticides were used. The harvest took place in September-October, with the water content of the grains being between 16-18%.

Seaway bean cultivar = experiment: Drought tolerance of beans, part a (5 days hardening); assay type: in vivo; settings: 7 days without water, one week regeneration
Text: Based on the experiences of our preliminary experiments, the plants were hardened before the application of the active agent by withholding the water for a few days, until the first signs of withering appeared. Then the plants were watered and the active agent was either dissolved in the water, or sprayed to the plants directly. Afterwards, the plants were subjected to different periods of drought according to the given experiment, watered again, and after a week-long regeneration period, the survival ratio was determined.
a) Seaway bean cultivar was hardened for 5 days by withholding the water. Afterwards the plantlets were watered for two days normally. During this time, a 10 mg/liter and 100 mg/liter concentration solution of the active agent was applied two times a day dissolved in water or by direct spraying. Then the water was withheld for 7 days, and after a week-long regeneration period, the survival ratio was determined.

bean cv. Seaway = experiment: Frost tolerance of beans; assay type: in vivo; settings: −2° C. for 8 hours
Experimental: Seedlings of bean cv. Seaway were cultivated under normal conditions for the first two weeks, then they were treated with 10 mg/liter and 100 mg/liter concentration solutions of the examined active agents 2 and 1 days before the initiation of the frost tolerance experiments. In the experiment, the plants were kept at −2° C. for 8 hours, then grew under normal conditions for I week, and the survival ratio was determined. 4 trays were used for each experiment and 6 seeds were planted in each tray.

[1] = test system: maize of low chilling tolerance (LT) population; experiment: CSVT, maize population of low chilling tolerance (LT); assay type: in vivo
Experimental: (§1) In this experiment the tolerance of maize, soybean and pepper seeds treated with the active agent against cold was tested. This test imposed temperature and oxygen deficiency stresses on the seeds and was carried out according to Barla-Szabó and Dolinka CSVT (Complex Stressing Vigour Test). For a single test, two hundred seeds were soaked for 48 hours at 25° C. and another 48 hours at 5° C in 150 ml distilled water containing the active agent in 10 mg/l concentration. Following the 96 hours of soaking, the seeds were further germinated between rolled wet paper for 96 hours at 25° C. There were 25 seeds in each roll, the rolls were placed vertically into containers and covered with a plastic bag in order to reduce evaporation. During the whole procedure the seeds were kept in darkness.
(§2) At the end of the experiment the number of normally developing and ungerminated seeds were recorded. The length of the normal seedlings was measured and the average length of the five longest seedlings was calculated. Seedlings longer than 0.33 times the average length of the five longest seedlings were considered to be of high vigour, and low vigour seedlings were shorter than this length.
In the case of a further experiment with maize of low chilling tolerance (LT) and high chilling tolerance (HT) populations [Ref: P. Landi, E. Frascaroli, A. Lovato; EUPHYTICA 64 21-29 (1992)], the following positive effects were found (Table 3.).

Mo 17 inbred maize line = experiment: CSVT (Complex Stressing Vigour Test), seeds soaked in active agent, Mo 17 maize; assay type: in vivo; settings: seeds soaked in 10 mg/l active agent, * = significant vs control P < 0.05
Experimental: as §1, with “darkness. At the end of the experiment the number of normally developing and ungerminated seeds were recorded. The length of the normal seedlings was measured and the average length of the five longest seedlings was calculated. Seedlings longer than 0.33 times the average length of the five longest seedlings were considered to be of high vigour, and low vigour seedlings were shorter than this length.” for “darkness.”

McCall soybeans = experiment: CSVT, McCall soybeans; assay type: in vivo, soybean
Experimental: as §1, §2
When applying the CSVT test, the following results were obtained (Table 4.).

CC(C)(C)NCC(O)CONC(=O)c1cccc(C(F)(F)F)c1.Cl (stereo not shown) [Compound 1, N-[2-hydroxy-3-(1,1-dimethylethyl-amino)propoxy]-3-trifluoromethyl-benzamide monohydrochloride]
Weight of the crop (kg/m^2) (soybean cv. Bólyi 44; seeds pearled with 1 mg active agent in 1 ml 5% PVA per 100 seeds): 0.55 kg/m^2
Improvement compared to the control (%) (soybean cv. Bólyi 44; weight of the crop): 22.2%
survival (%), Spraying (100 mg/l) (Seaway bean cultivar): 71* %
survival (%), Watering (10 mg/l) (Seaway bean cultivar): 30* %
survival (%), Watering (100 mg/l) (Seaway bean cultivar): 41* %
Survival (%) (bean cv. Seaway; spraying, 100 mg/l): 40* %
Survival (%) (bean cv. Seaway; watering, 10 mg/l): 25* %
Ratio of high vigour plants %, LT [1]: 94* %
Ratio of high vigour plants (%) (Mo 17 inbred maize line): 29* %
Ratio of high vigour plants (%) (McCall soybeans): 43* %
